Experimental data reported in publication PMC9250534, “Synthesis and direct assay of large macrocycle diversities by combinatorial late-stage modification at picomole scale” (Nature Communications, 2022).
Numbered stars: 1 amine (or outer) side, 2 acyl side, 3 side chain; on linkers, the order of the positions; unused ones are H or OH. Bridge positions count the residues as written; N and C are the ends. Square brackets hold non-standard residues; d marks the D form. Peptide text beside a SMILES is read from it. * marks the point of attachment. 2Thenoyl(5-Cl) = O=C(c1ccc(Cl)s1)*; Cysteamide = C(CS[*:3])N[*:1]; dDap = NC[C@@H](N)C(=O)O; Orn = NCCC[CH](N)C(=O)O; Dap = NC[CH](N)C(=O)O; Mpa = O=C(O)CCS

Molecular target: T1, thrombin (Homo sapiens, UniProt P00734)
T1 construct: consists of two polypeptide chains of 36 (light chain) and 259 amino acid
Assay: Thrombin inhibition screen of crude macrocycle reactions (residual thrombin activity, fluorogenic substrate Z-Gly-Gly-Arg-AMC)
Format: biochemical
Settings: 10 µM macrocycle concentration, macrocycles containing acid 14, crude reaction; for % thrombin activity, Repeat screen: replicate reaction and screen
How it was run: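 Each crude macrocycle (10 μM) was preincubated 10 min at room temperature with thrombin (2 nM final) in Tris-Cl pH 7.4 containing NaCl, MgCl2, CaCl2, 0.1% BSA, 0.01% Triton X-100 and 0.6% DMSO. Z-Gly-Gly-Arg-AMC (50 μM final) was then added. Inhibition came from fluorescence slopes relative to DMSO-only controls.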

| % thrombin activity, Original screen [%] | % thrombin activity, Repeat screen [%] | % thrombin activity, Original screen (listed as X D3 B1 V) [%] | % thrombin activity, Repeat screen (listed as X D3 B1 V) [%] | % thrombin activity, Original screen (listed as X D6 V B5) [%] | % thrombin activity, Repeat screen (listed as X D6 V B5) [%] | Structure (SMILES) |
| --- | --- | --- | --- | --- | --- | --- |
| 96.4 | 96.3 | – | – | – | – | O=C1CCSSCCNC(=O)C2CCCN2C(=O)C(Cc2ccc(O)cc2)NC(=O)C(CCCNC(=O)c2ccc(Cl)s2)N1 (stereo not drawn) [X D2 Y B1] ([Mpa][Orn](2Thenoyl(5-Cl))YP-Cysteamide; disulfide 1-C; configuration not given here) |
| 108.5 | 109.5 | – | – | – | – | C[C@H]1NC(=O)[C@H](CCCNC(=O)c2ccc(Cl)s2)NC(=O)CCSSCCNC(=O)CCNC1=O [X D2 a B2] |
| 92.1 | 95.4 | 98.0 | 99.7 | – | – | CC(C)C1NC(=O)C2CCCN2C(=O)C(CNC(=O)c2ccc(Cl)s2)NC(=O)CCSSCCNC1=O (stereo not drawn) [X D3 B1 v] ([Mpa][Dap](2Thenoyl(5-Cl))PV-Cysteamide; disulfide 1-C; configuration not given here) |
| 56.1 | 56.2 | – | – | – | – | O=C1CCSSCCNC(=O)[C@H](Cc2ccccc2)NC(=O)CCNC(=O)[C@H](CNC(=O)c2ccc(Cl)s2)N1 [X D3 B2 F] |
| 78.9 | 71.1 | – | – | – | – | O=C1CCSSCCNC(=O)C(Cc2c[nH]cn2)NC(=O)CCNC(=O)C(CNC(=O)c2ccc(Cl)s2)N1 (stereo not drawn) [X D3 B2 H] |
| 91.4 | 92.1 | – | – | – | – | NC(=O)CCC1NC(=O)CCNC(=O)C(CNC(=O)c2ccc(Cl)s2)NC(=O)CCSSCCNC1=O (stereo not drawn) [X D3 B2 Q] |
| 68.7 | 73.3 | – | – | – | – | O=C1CCSSCCNC(=O)[C@H](Cc2c[nH]c3ccccc23)NC(=O)c2ccc(cc2)CNC(=O)[C@H](CNC(=O)c2ccc(Cl)s2)N1 [X D3 B3 W] |
| 77.4 | 84.4 | – | – | – | – | O=C1CCSSCCNC(=O)[C@@H](Cc2ccccc2)NC(=O)c2ccc(cc2)CNC(=O)[C@H](CNC(=O)c2ccc(Cl)s2)N1 [X D3 B3 f] |
| 66.8 | 62.9 | – | – | – | – | O=C1CCSSCCNC(=O)[C@H](Cc2ccccc2)NC(=O)[C@H]2CCCN(C2)C(=O)[C@H](CNC(=O)c2ccc(Cl)s2)N1 [X D3 B4 F] |
| 94.4 | 90.2 | – | – | – | – | NC(=O)CCC1NC(=O)C2CCCN(C2)C(=O)C(CNC(=O)c2ccc(Cl)s2)NC(=O)CCSSCCNC1=O (stereo not drawn) [X D3 B4 Q] |
| 70.6 | 70.5 | – | – | – | – | O=C1CCSSCCNC(=O)[C@H](Cc2ccc(O)cc2)NC(=O)C2(CC2)CNC(=O)[C@H](CNC(=O)c2ccc(Cl)s2)N1 [X D3 B6 Y] |
| 87.6 | 88.8 | – | – | – | – | CC[C@H](C)[C@@H]1NC(=O)[C@H](CNC(=O)c2ccc(Cl)s2)NC(=O)CCSSCCNC(=O)c2ccc(cc2)CNC1=O [X D3 I B3] |
| 72.8 | 67.3 | – | – | – | – | NC(=O)CC[C@@H]1NC(=O)[C@H](CNC(=O)c2ccc(Cl)s2)NC(=O)CCSSCCNC(=O)C2(CC2)CNC1=O [X D3 Q B6] |
| 101.5 | 109.4 | – | – | – | – | O=C1CCSSCCNC(=O)c2ccc(cc2)CNC(=O)[C@H](Cc2c[nH]c3ccccc23)NC(=O)[C@H](CNC(=O)c2ccc(Cl)s2)N1 [X D3 W B3] |
| 78.6 | 75.2 | – | – | – | – | O=C1CCNC(=O)[C@@H](Cc2ccc(O)cc2)NC(=O)[C@H](CNC(=O)c2ccc(Cl)s2)NC(=O)CCSSCCN1 [X D3 y B2] |
| 103.5 | 106.9 | – | – | – | – | CC1NC(=O)C(CNC(=O)c2ccc(Cl)s2)NC(=O)CCSSCCNC(=O)c2cccc(c2)CNC1=O (stereo not drawn) [X D4 a B5] |
| 68.9 | 70.9 | – | – | – | – | O=C1CCSSCCNC(=O)[C@@H]2CCCN2C(=O)[C@@H](Cc2c[nH]c3ccccc23)NC(=O)[C@@H](CNC(=O)c2ccc(Cl)s2)N1 [X D4 w B1] ([Mpa][dDap](2Thenoyl(5-Cl))[dW]P-Cysteamide; disulfide 1-C) |
| 90.8 | 96.7 | – | – | – | – | O=C1CCNC(=O)[C@@H](Cc2c[nH]c3ccccc23)NC(=O)[C@@H](CNC(=O)c2ccc(Cl)s2)NC(=O)CCSSCCN1 [X D4 w B2] |
| 115.0 | 124.0 | – | – | – | – | O=C1CCNC(=O)C2CC(NC(=O)c3ccc(Cl)s3)CN2C(=O)CCSSCCNC(=O)C(CO)N1 (stereo not drawn) [X D5 B2 S] |
| 114.0 | 116.8 | – | – | – | – | CC(C)CC1NC(=O)C2(CC2)CNC(=O)C2CC(NC(=O)c3ccc(Cl)s3)CN2C(=O)CCSSCCNC1=O (stereo not drawn) [X D5 B6 L] |

| % thrombin activity, Original screen [%] | % thrombin activity, Repeat screen [%] | % thrombin activity, Original screen (listed as X D3 B1 V) [%] | % thrombin activity, Repeat screen (listed as X D3 B1 V) [%] | % thrombin activity, Original screen (listed as X D6 V B5) [%] | % thrombin activity, Repeat screen (listed as X D6 V B5) [%] | Structure (SMILES) |
| --- | --- | --- | --- | --- | --- | --- |
| 110.6 | 115.5 | – | – | – | – | CC(C)CC1NC(=O)C2CC(NC(=O)c3ccc(Cl)s3)CN2C(=O)CCSSCCNC(=O)c2ccc(cc2)CNC1=O (stereo not drawn) [X D5 L B3] |
| 94.2 | 89.4 | – | – | – | – | CC(C)CC1NC(=O)C2CC(NC(=O)c3ccc(Cl)s3)CN2C(=O)CCSSCCNC(=O)C2CCCN(C2)C1=O (stereo not drawn) [X D5 L B4] |
| 94.5 | 101.1 | – | – | – | – | NC(=O)CCC1NC(=O)C2CC(NC(=O)c3ccc(Cl)s3)CN2C(=O)CCSSCCNC(=O)c2ccc(cc2)CNC1=O (stereo not drawn) [X D5 Q B3] |
| 92.6 | 101.4 | – | – | – | – | O=C1NCCSSCCC(=O)N2CC(NC(=O)c3ccc(Cl)s3)CC2C(=O)NC(CO)C(=O)NCc2ccc1cc2 (stereo not drawn) [X D5 s B3] |
| 104.4 | 109.7 | – | – | – | – | CC[C@H](C)[C@@H]1NC(=O)CCNC(=O)C2(CCN(C(=O)c3ccc(Cl)s3)CC2)NC(=O)CCSSCCNC1=O [X D6 B2 I] |
| 92.0 | 95.8 | – | – | – | – | CC1NC(=O)c2ccc(cc2)CNC(=O)C2(CCN(C(=O)c3ccc(Cl)s3)CC2)NC(=O)CCSSCCNC1=O (stereo not drawn) [X D6 B3 a] |
| 105.2 | 108.9 | – | – | – | – | CC(C)C[C@@H]1NC(=O)c2cccc(c2)CNC(=O)C2(CCN(C(=O)c3ccc(Cl)s3)CC2)NC(=O)CCSSCCNC1=O [X D6 B5 L] |
| 92.3 | 95.8 | – | – | – | – | O=C1CCSSCCNC(=O)[C@@H](Cc2ccccc2)NC(=O)c2cccc(c2)CNC(=O)C2(CCN(C(=O)c3ccc(Cl)s3)CC2)N1 [X D6 B5 f] |
| 96.8 | 96.5 | – | – | – | – | O=C1CCSSCCNC(=O)[C@H](Cc2c[nH]cn2)NC(=O)C2(CC2)CNC(=O)C2(CCN(C(=O)c3ccc(Cl)s3)CC2)N1 [X D6 B6 H] |
| 81.5 | 80.4 | – | – | – | – | CC(C)C1NC(=O)C2(CCN(C(=O)c3ccc(Cl)s3)CC2)NC(=O)CCSSCCNC(=O)C2CCCN(C2)C1=O (stereo not drawn) [X D6 V B4] |
| 95.3 | 101.4 | – | – | – | – | O=C1CCSSCCNC(=O)[C@H]2CCCN(C2)C(=O)[C@H](Cc2c[nH]c3ccccc23)NC(=O)C2(CCN(C(=O)c3ccc(Cl)s3)CC2)N1 [X D6 W B4] |
| 84.9 | 90.5 | – | – | 98.9 | 103.9 | CC(C)[C@H]1NC(=O)C2(CCN(C(=O)c3ccc(Cl)s3)CC2)NC(=O)CCSSCCNC(=O)c2cccc(c2)CNC1=O [X D6 v B5] |
| 102.0 | 104.5 | – | – | – | – | O=C1CCNC(=O)[C@@H](Cc2ccc(O)cc2)NC(=O)C2(CCN(C(=O)c3ccc(Cl)s3)CC2)NC(=O)CCSSCCN1 [X D6 y B2] |
| 94.6 | 91.5 | – | – | – | – | O=C1CCNC(=O)[C@H](Cc2c[nH]cn2)NC(=O)CCSSCCNC(=O)[C@H](CCCNC(=O)c2ccc(Cl)s2)N1 [X H B2 D2] |
| 95.8 | 95.8 | – | – | – | – | O=C1CCSSCCNC(=O)C2CCCN2C(=O)C(CCCNC(=O)c2ccc(Cl)s2)NC(=O)C(Cc2c[nH]cn2)N1 (stereo not drawn) [X H D2 B1] ([Mpa]H[Orn](2Thenoyl(5-Cl))P-Cysteamide; disulfide 1-C; configuration not given here) |
| 91.3 | 90.1 | – | – | – | – | CC[C@H](C)[C@@H]1NC(=O)CCSSCCNC(=O)[C@H](CNC(=O)c2ccc(Cl)s2)NC(=O)[C@@H]2CCCN2C1=O [X I B1 D3] ([Mpa]IP[Dap](2Thenoyl(5-Cl))-Cysteamide; disulfide 1-C) |
| 72.9 | 70.2 | – | – | – | – | CC[C@H](C)[C@@H]1NC(=O)CCSSCCNC(=O)[C@H](CNC(=O)c2ccc(Cl)s2)NC(=O)CCNC1=O [X I B2 D3] |
| 102.2 | 101.6 | – | – | – | – | CC[C@H](C)[C@@H]1NC(=O)CCSSCCNC(=O)[C@H]2CCCN(C2)C(=O)[C@H](CCCCNC(=O)c2ccc(Cl)s2)NC1=O [X I D1 B4] |
| 102.3 | 104.9 | – | – | – | – | CC[C@H](C)[C@@H]1NC(=O)CCSSCCNC(=O)c2ccc(cc2)CNC(=O)[C@H](CNC(=O)c2ccc(Cl)s2)NC1=O [X I D3 B3] |
| 94.8 | 97.2 | – | – | – | – | CC(C)C[C@@H]1NC(=O)CCSSCCNC(=O)[C@H](CCCCNC(=O)c2ccc(Cl)s2)NC(=O)C2(CC2)CNC1=O [X L B6 D1] |
